Structures can show the parent of a compound that is named as a salt.
Target: catalytic domain of human PARP14 (Homo sapiens (Human), UniProt Q460N5)
Test: Enzymatic assay for inhibition of PARP14 (DELFIA, auto-modification with biotin-NAD)
Type: biochemical
Settings: auto-modification of PARP14 by biotin-NAD, 50 nM PARP14, 3 μM biotin-NAD
Method in brief: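 His-TEV-tagged PARP14 catalytic domain (50 nM) preincubated with compound 30 min at 25 °C, then auto-modified with 3 μM biotin-NAD for 3 h at 25 °C in HEPES pH 8 buffer with DTT. IC50 from 4-parameter fit, rucaparib and DMSO as controls.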

catalytic domain of human PARP14, sequence (Q460N5 1611-1801): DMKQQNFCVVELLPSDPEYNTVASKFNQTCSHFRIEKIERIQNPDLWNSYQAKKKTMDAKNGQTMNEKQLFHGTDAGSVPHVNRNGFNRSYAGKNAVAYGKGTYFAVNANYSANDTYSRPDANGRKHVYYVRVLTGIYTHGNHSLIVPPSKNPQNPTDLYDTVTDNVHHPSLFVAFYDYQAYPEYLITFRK

Row | Structure (SMILES) | IC50
1 | O=c1[nH]c(CSC2CCOCC2)nc2cc(NC3CCCC3)ncc12 [Example 189, 7-(cyclopentylamino)-2-(((tetrahydro-2H-pyran-4-yl)thio)methyl)pyrido[4,3-d]pyrimidin-4(3H)-one] | 1000 to 10000 nM
2 | O=c1[nH]c(CSC2CCCNCC2)nc2cc(NC3CCCC3)ccc12 (stereo not shown) [Example 190, 2-((azepan-4-ylthio)methyl)-7-(cyclopentylamino)quinazolin-4(3H)-one] | < 1000 nM
3 | Cc1cccc2c(=O)[nH]c(CSC3CCC(CN)C3)nc12 (stereo not shown) [Example 191, 2-(((3-(aminomethyl)cyclopentyl)thio)methyl)-8-methylquinazolin-4(3H)-one] | 1000 to 10000 nM
4 | Cc1cc(Nc2ccc3c(=O)[nH]c(CSC4CCOCC4)nc3c2)on1 [Example 192, 7-((3-methylisoxazol-5-yl)amino)-2-(((tetrahydro-2H-pyran-4-yl)thio)methyl)quinazolin-4(3H)-one] | < 1000 nM
5 | CS(=O)(=O)N1CCC[C@@H](Nc2ccc3c(=O)[nH]c(CSC4CCOCC4)nc3c2)C1 [Example 193, (R)-7-((1-(methylsulfonyl)piperidin-3-yl)amino)-2-(((tetrahydro-2H-pyran-4-yl)thio)methyl)quinazolin-4(3H)-one] | < 1000 nM
6 | O=c1[nH]c(CS[C@H]2CC[C@H](O)CC2)nc2cc(NC3CCC3)ccc12 [Example 194, 7-(cyclobutylamino)-2-((((1R,4R)-4-hydroxycyclohexyl)thio)methyl)quinazolin-4(3H)-one] | < 1000 nM
7 | CS(=O)(=O)N1CC(Nc2ccc3c(=O)[nH]c(CSC4CCOCC4)nc3c2)C1 [Example 195, 7-((1-(methylsulfonyl)azetidin-3-yl)amino)-2-(((tetrahydro-2H-pyran-4-yl)thio)methyl)quinazolin-4(3H)-one] | < 1000 nM
8 | CS(=O)(=O)N1CCC[C@@H](Nc2ccc3c(=O)[nH]c(CSC4CCNCC4)nc3c2)C1 [Example 196, (R)-7-((1-(methylsulfonyl)piperidin-3-yl)amino)-2-((piperidin-4-ylthio)methyl)quinazolin-4(3H)-one] | < 1000 nM
9 | O=c1[nH]c(CSC2CCOCC2)nc2cc(OC3CCCC3)ccc12 [Example 197, 7-(cyclopentyloxy)-2-(((tetrahydro-2H-pyran-4-yl)thio)methyl)quinazolin-4(3H)-one] | < 1000 nM
10 | Cc1cccc2c(=O)[nH]c(CSC3CCCOCC3)nc12 (stereo not shown) [Example 198, 8-methyl-2-((oxepan-4-ylthio)methyl)quinazolin-4(3H)-one] | 1000 to 10000 nM
11 | O=c1[nH]c(CS[C@H]2CC[C@H](O)CC2)nc2cc(NC3CCCC3)cc(C(F)(F)F)c12 [Example 199, 7-(cyclopentylamino)-2-((((1R,4R)-4-hydroxycyclohexyl)thio)methyl)-5-(trifluoromethyl)quinazolin-4(3H)-one] | < 1000 nM
12 | O=c1[nH]c(CSC2CCNCC2)nc2cc(NC3CCC3)ccc12 [Example 200, 7-(cyclobutylamino)-2-((piperidin-4-ylthio)methyl)quinazolin-4(3H)-one] | < 1000 nM
13 | CS(=O)(=O)N1CCC[C@@H](Nc2ccc3c(=O)[nH]c(CSC4CCOCC4)nc3n2)C1 [Example 201, (R)-7-((1-(methylsulfonyl)piperidin-3-yl)amino)-2-(((tetrahydro-2H-pyran-4-yl)thio)methyl)pyrido[2,3-d]pyrimidin-4(3H)-one] | < 1000 nM
14 | CC(C)Cc1ccc2c(=O)[nH]c(CSC3CCOCC3)nc2c1 [Example 202, 7-Isobutyl-2-(((tetrahydro-2H-pyran-4-yl)thio)methyl)quinazolin-4(3H)-one] | 1000 to 10000 nM
15 | Cc1cc(NC2CCCC2)cc2nc(CSC3CCOCC3)[nH]c(=O)c12 [Example 203, 7-(Cyclopentylamino)-5-methyl-2-(((tetrahydro-2H-pyran-4-yl)thio)methyl) quinazolin-4(3H)-one] | < 1000 nM
16 | Cc1cccc2c(=O)[nH]c(CS[C@H]3CC[C@@H](C(N)=O)CC3)nc12 [Example 204, cis-4-(((8-Methyl-4-oxo-3,4-dihydroquinazolin-2-yl)methyl)thio)cyclohexane-1-carboxamide] | 1000 to 10000 nM
17 | Cc1cccc2c(=O)[nH]c(CS[C@H]3CC[C@H](C(N)=O)CC3)nc12 [Example 205, trans-4-(((8-Methyl-4-oxo-3,4-dihydroquinazolin-2-yl)methyl)thio)cyclohexane-1-carboxamide] | < 1000 nM
18 | O=c1[nH]c(CSC2CCNCC2)nc2cc(NC3CCCC3)cc(Cl)c12 [Example 206, 5-Chloro-7-(cyclopentylamino)-2-((piperidin-4-ylthio)methyl)quinazolin-4(3H)-one Hydrochloride] | < 1000 nM
19 | COc1cc(NC2CCCC2)cc2nc(CSC3CCOCC3)[nH]c(=O)c12 [Example 207, 7-(Cyclopentylamino)-5-methoxy-2-(((tetrahydro-2H-pyran-4-yl)thio)methyl)quinazolin-4(3H)-one] | > 10000 nM

Row | Structure (SMILES) | IC50
20 | COC(=O)N1CCC(SCc2nc3cc(NC4CCCC4)ccc3c(=O)[nH]2)CC1 [Example 208, Methyl 4-(((7-(cyclopentylamino)-4-oxo-3,4-dihydroquinazolin-2-yl)methyl)thio)piperidine-1-carboxylate] | < 1000 nM
21 | Cc1cccc2c(=O)[nH]c(CS[C@H]3CC[C@H](CC(N)=O)CC3)nc12 [Example 209, 2-((trans)-4-(((8-Methyl-4-oxo-3,4-dihydroquinazolin-2-yl)methyl)thio)cyclohexyl) acetamide] | < 1000 nM
22 | O=c1[nH]c(CS[C@@H]2CCNC[C@H]2F)nc2cc(NC3CCCC3)cc(F)c12 [Example 211b, 7-(Cyclopentylamino)-5-fluoro-2-((((3R,4R)-3-fluoropiperidin-4-yl)thio)methyl)quinazolin-4(3H)-one] | < 1000 nM
23 | O=c1[nH]c(CS[C@@H]2CCNC[C@@H]2F)nc2cc(NC3CCCC3)cc(F)c12 [Example 213b, 7-(cyclopentylamino)-5-fluoro-2-((((3S,4R)-3-fluoropiperidin-4-yl)thio)methyl)quinazolin-4(3H)-one] | < 1000 nM
24 | O=C(CO)N1CCC(SCc2nc3cc(NC4CCCC4)cc(F)c3c(=O)[nH]2)CC1 [Example 214, 7-(Cyclopentylamino)-5-fluoro-2-(((1-(2-hydroxyacetyl)piperidin-4-yl)thio)methyl)quinazolin-4(3H)-one] | < 1000 nM
25 | O=c1[nH]c(CSC2CCCCC2)nc2cc(NC3CCCC3)cc(F)c12 [Example 215, 2-((Cyclohexylthio)methyl)-7-(cyclopentylamino)-5-fluoroquinazolin-4(3H)-one] | < 1000 nM
26 | O=c1[nH]c(CS[C@H]2CC[C@@H](C(=O)O)CC2)nc2cc(NC3CCCC3)cc(F)c12 [Example 216, cis-4-(((7-(Cyclopentylamino)-5-fluoro-4-oxo-3,4-dihydroquinazolin-2-yl)methyl)thio)cyclohexane-1-carboxylic acid] | 1000 to 10000 nM
27 | O=c1[nH]c(CS[C@H]2CC[C@H](C(=O)O)CC2)nc2cc(NC3CCCC3)cc(F)c12 [Example 217, trans-4-(((7-(Cyclopentylamino)-5-fluoro-4-oxo-3,4-dihydroquinazolin-2-yl)methyl)thio)cyclohexane-1-carboxylic acid] | < 1000 nM
28 | NC(=O)[C@H]1CC[C@H](SCc2nc3cc(NC4CCCC4)cc(F)c3c(=O)[nH]2)CC1 [Example 218, trans-4-(((7-(Cyclopentylamino)-5-fluoro-4-oxo-3,4-dihydroquinazolin-2-yl)methyl)thio)cyclohexane-1-carboxamide] | < 1000 nM
29 | O=c1[nH]c(CSC2CCOCC2)nc2cc(OCC3CC3)ccc12 [Example 219, 7-(Cyclopropylmethoxy)-2-(((tetrahydro-2H-pyran-4-yl)thio)methyl)quinazolin-4(3H)-one] | < 1000 nM
30 | CN(C)C(=O)N1CCC(SCc2nc3cc(NC4CCCC4)cc(F)c3c(=O)[nH]2)CC1 [Example 220, 4-(((7-(Cyclopentylamino)-5-fluoro-4-oxo-3,4-dihydroquinazolin-2-yl)methyl)thio)-N,N-dimethylpiperidine-1-carboxamide] | < 1000 nM
31 | O=c1[nH]c(CSC2CCOCC2)nc2cc(NC3CCCC3)cc(CO)c12 [Example 224, 7-(Cyclopentylamino)-5-(hydroxymethyl)-2-(((tetrahydro-2H-pyran-4-yl)thio)methyl)quinazolin-4(3H)-one] | 1000 to 10000 nM
32 | O=c1[nH]c(CSC2CCOCC2)nc2cc(NC3CCCC3)cc(CF)c12 [Example 225, 7-(cyclopentylamino)-5-(fluoromethyl)-2-(((tetrahydro-2H-pyran-4-yl)thio)methyl)quinazolin-4(3H)-one] | > 10000 nM
33 | O=c1[nH]c(CSC2CCNCC2)nc2cc(NC3CCCC3)c(F)cc12 [Example 226, 7-(Cyclopentylamino)-6-fluoro-2-((piperidin-4-ylthio)methyl)quinazolin-4(3H)-one hydrochloride] | < 1000 nM
34 | O=c1[nH]c(CSC2CCNCC2)nc2nc(OCC3CC3)ccc12 [Example 229, 7-(Cyclopropylmethoxy)-2-((piperidin-4-ylthio)methyl)pyrido[2,3-d]pyrimidin-4(3H)-one Hydrochloride] | < 1000 nM
35 | COc1cc2c(=O)[nH]c(CSC3CCNCC3)nc2cc1NCC1CCC1 [Example 230, 7-((Cyclobutylmethyl)amino)-6-methoxy-2-((piperidin-4-ylthio)methyl)quinazolin-4(3H)-one Hydrochloride] | 1000 to 10000 nM
36 | O=c1[nH]c(CSC2CCOCC2)nc2cc(NC3CCCC3(F)F)cc(F)c12 (stereo not shown) [Example 231, 7-((2,2-Difluorocyclopentyl)amino)-5-fluoro-2-(((tetrahydro-2H-pyran-4-yl)thio)methyl)quinazolin-4(3H)-one] | < 1000 nM
37 | O=c1[nH]c(CSC2CCNCC2)nc2cc(NC3CCCC3)c(F)c(F)c12 [Example 232, 7-(Cyclopentylamino)-5,6-difluoro-2-((piperidin-4-ylthio)methyl)quinazolin-4(3H)-one Hydrochloride] | < 1000 nM

— patent US10562891B2, “Quinazolinones as PARP14 inhibitors” (Ribon Therapeutics Inc., priority 2017, dated 2020)
